Measurements reported in patent US4816447A, “Anti-viral guanine compounds” (priority 1984, dated 1989).
Read-outs that look alike come from different tables or passages of the source.

Assays:
HSV-1 (383R1) [1] = experiment: Phosphorylation capacity of HSV-1 (383R1); format: biochemical
HSV-1 (383R1) [2] = format: cell-based; conditions: HSV-1 (383R1) vs wild type
HSV-1 [3] = experiment: In vitro activity against HSV-1 with and without added thymidine; format: cell-based; conditions: for EC50: read-out: ED50 (the source's name)
[4] = biological target: HSV1-induced thymidine kinase (Human alphaherpesvirus 1 strain 17, UniProt P0DTH5); experiment: Kinetic parameters with purified viral thymidine kinase; format: biochemical; conditions: compound of formula II to acycloguanosine
SV40 = experiment: Plaque inhibition, SV40 on CV-1 cells (Table V); format: cell-based, SV40; CV-1 (monkey) cells; conditions: for EC50: Primates, read-out: ED50, concentration required for 50% plaque inhibition, SV40, CV-1
Description: ED50 values developed for the cyclic monophosphate are compared on a weight basis to those established for the compound of Formula II and acyclovir.
SV40 was assayed on CV-1 (monkey) cell cultures.

[5] = test system: Herpes simplex virus type I (HSV-1), strain Schooler; experiment: Treatment of Herpes simplex virus infection in mice, intraperitoneal HSV-1, subcutaneous treatment (Table II); format: in vivo, HSV-1; ICR/Ha mice; conditions: for Percent Survival: at 15 days
[6] = biological target: thymidine kinase, isolated from HSV1-infected HeLa cells (Human herpesvirus 1, UniProt P0DTH5); experiment: Competition between thymidine and acycloguanosine or compound of formula II for phosphorylation by the virus-induced thymidine kinase; format: biochemical; conditions: for Percent monophosphate: 1200 min
Cytomegalovirus = Cytomegalovirus plaque reduction assay on human MRC-5 monolayers; format: cell-based, Cytomegalovirus (Towne Strain); human MRC-5 cells
Description: The compound of formula II was effective in suppressing cytomegalovirus plaque formation on MRC-5 cell monolayers using 0.1 to 0.6 μg/ml.
^d Plaque reduction assay on human MRC5 cell monolayers

equine herpes virus = experiment: Antiviral activity against equine herpes virus; format: cell-based; conditions: data not shown, read-out: ED50 (the source's name)
HSV-1 [7] = experiment: Corneal HSV-1 infection of rabbit eyes, topical treatment (Table VI); format: in vivo, HSV-1; rabbits; conditions: for Min. Effective Dose: corneal infection, topical treatment; for limiting progression and resolving corneal lesions: infected rabbits
HSV1 (Strain Schooler) = experiment: In vivo assay, intraperitoneal HSV1 infection of mice, subcutaneous treatment (Table IV); set-up: species or system HSV1; ICR/Ha mice; conditions: for Percent Survival: 15 days
Description: Twenty gram ICR/Ha mice were infected with approximately 100 lethal doses (100LD50) of HSV1 (Strain Schooler) by the intraperitoneal route. Groups of 10 infected animals were treated twice daily for four days starting immediately after infection by subcutaneous injection at final daily doses of 50, 12.5, 3.1, 0.8, 0.2, 0.05 and 0.0125 mg/kg of potassium 9-(1,3-dihydroxy-2-propoxymethyl)guanine cyclic monophosphate. The mice were observed daily for 15 days at the same time each day and the day of death recorded for each animal.

[8] = test system: feline rhinotracheitis virus; experiment: Antiviral activity against feline rhinotracheitis virus; format: cell-based; conditions: data not shown, read-out: ED50 (the source's name)
polio = format: cell-based
vesicular stomatitis = format: cell-based
HSV1 = experiment: In vitro assay, viral cytopathology of HSV1 in primary rabbit kidney cells; format: cell-based; conditions: Human alphaherpesvirus 1; days 5 and 7; read-out: Min. Effective Dose against HSV1
HSV-1 [9] = experiment: Intracerebral HSV-1 infection in weanling mice, subcutaneous treatment (Table VI); format: in vivo, HSV-1; ICR/Ha weanling mice
influenza A = experiment: RNA virus replication, influenza A; format: cell-based
[10] = test system: primary rabbit kidney cell cultures; experiment: Toxicity controls in primary rabbit kidney cell cultures; format: cell-based; conditions: at 100 μg/ml
HSV2 = experiment: In vitro assay, viral cytopathology of HSV2 in primary rabbit kidney cells; format: cell-based; conditions: Human alphaherpesvirus 2; days 5 and 7; read-out: Min. Effective Dose against HSV2
HSV-1 PAA ®1 = conditions: HSV-1 PAA R1
[11] = Human alphaherpesvirus 1, absence of thymidine
[12] = Human alphaherpesvirus 1, presence of thymidine (20 μg/ml)

Chain of thymidine kinase, isolated from HSV1-infected HeLa cells (P0DTH5 whole entry): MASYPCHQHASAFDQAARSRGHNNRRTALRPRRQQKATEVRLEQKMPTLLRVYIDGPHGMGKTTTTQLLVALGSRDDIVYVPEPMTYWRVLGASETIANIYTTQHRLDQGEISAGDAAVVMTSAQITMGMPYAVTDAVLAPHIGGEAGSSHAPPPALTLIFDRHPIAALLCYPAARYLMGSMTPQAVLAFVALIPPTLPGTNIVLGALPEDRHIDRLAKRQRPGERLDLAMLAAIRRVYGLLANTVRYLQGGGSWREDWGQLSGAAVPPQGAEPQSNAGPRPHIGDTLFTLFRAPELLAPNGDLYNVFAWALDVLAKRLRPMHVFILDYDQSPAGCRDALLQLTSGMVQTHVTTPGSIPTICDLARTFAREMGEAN
Chain of HSV1-induced thymidine kinase (P0DTH5 whole entry): as above

Nc1nc2c(ncn2COC(CO)CO)c(=O)[nH]1 [Compound of Formula II, 9-(1,3-Dihydroxy-2-propoxymethyl)guanine]
phosphorylation by HSV-1 (383R1) (HSV-1 (383R1) [1]): incapable of phosphorylation
less susceptible than wild type (HSV-1 (383R1) [2]): approximately 100 fold
reduction of antiviral activity by thymidine (HSV-1 [3]; 20 μg thymidine/ml): greater than 15 fold
EC50 (HSV-1 [3]; [11]): 0.8 to 1.6 µg/mL
EC50 (HSV-1 [3]; [12]): 25 µg/mL
relative efficiency as substrate (Vmax /Km) vs acycloguanosine [4]: 30 to 1
EC50 (SV40): > 100 µg/mL
Avg. Survival Time ([5]; 3.1 mg/kg/day s.c.): 12.5 days
Percent Survival ([5]; 3.1 mg/kg/day s.c.): 53%
Avg. Survival Time ([5]; 12.5 mg/kg/day s.c.): 14.1 days
Percent Survival ([5]; 12.5 mg/kg/day s.c.): 73%
Avg. Survival Time ([5]; 50 mg/kg/day s.c.): 19.1 days
Percent Survival ([5]; 50 mg/kg/day s.c.): 100%
phosphorylation in presence of a large excess of thymidine ([6]; large excess of thymidine): is phosphorylated by the viral thymidine kinase even in the presence of a large excess of thymidine
Percent monophosphate ([6]; plus 2.5 mM thymidine): 23%
Percent monophosphate ([6]; without thymidine): 93%
calculated average relative potency to acycloguanosine (95% CI) (Cytomegalovirus): 28.6

Nc1nc2c(ncn2COC2COP(=O)(O)OC2)c(=O)[nH]1 (stereo not shown) [Cyclic Monophosphate, Potassium 9-(1,3-dihydroxy-2-propoxymethyl)guanine cyclic monophosphate]
EC50 (equine herpes virus): ~1 µg/mL
Min. Effective Dose (HSV-1 [7]): 1.0%
limiting progression and resolving corneal lesions (HSV-1 [7]): equally effective
EC50 (HSV-1 [3]; [11]): 12.5 µg/mL
EC50 (HSV-1 [3]; [12]): 25 to 50 µg/mL
Ave. Survival Time (HSV1 (Strain Schooler); Expt. 1, 0.2 mg/kg/day s.c.): 13.5 days
Percent Survival (HSV1 (Strain Schooler); Expt. 1, 0.2 mg/kg/day s.c.): 70%
Ave. Survival Time (HSV1 (Strain Schooler); Expt. 1, 0.8 mg/kg/day s.c.): 10.5 days
Percent Survival (HSV1 (Strain Schooler); Expt. 1, 0.8 mg/kg/day s.c.): 40%
Ave. Survival Time (HSV1 (Strain Schooler); Expt. 1, 3.1 mg/kg/day s.c.): 10.7 days
Percent Survival (HSV1 (Strain Schooler); Expt. 1, 3.1 mg/kg/day s.c.): 20%
Ave. Survival Time (HSV1 (Strain Schooler); Expt. 1, 12.5 mg/kg/day s.c.): 19.5 days
Percent Survival (HSV1 (Strain Schooler); Expt. 1, 12.5 mg/kg/day s.c.): 100%
Ave. Survival Time (HSV1 (Strain Schooler); Expt. 1, 50 mg/kg/day s.c.): 19.5 days
Percent Survival (HSV1 (Strain Schooler); Expt. 1, 50 mg/kg/day s.c.): 100%
Ave. Survival Time (HSV1 (Strain Schooler); Expt. 2, 0.0125 mg/kg/day s.c.): 6.3 days
Percent Survival (HSV1 (Strain Schooler); Expt. 2, 0.0125 mg/kg/day s.c.): 10%
Ave. Survival Time (HSV1 (Strain Schooler); Expt. 2, 0.05 mg/kg/day s.c.): 6.0 days
Percent Survival (HSV1 (Strain Schooler); Expt. 2, 0.05 mg/kg/day s.c.): 0%
Ave. Survival Time (HSV1 (Strain Schooler); Expt. 2, 0.2 mg/kg/day s.c.): 8.3 days
Percent Survival (HSV1 (Strain Schooler); Expt. 2, 0.2 mg/kg/day s.c.): 30%
Ave. Survival Time (HSV1 (Strain Schooler); Expt. 2, 0.8 mg/kg/day s.c.): 7.4 days
Percent Survival (HSV1 (Strain Schooler); Expt. 2, 0.8 mg/kg/day s.c.): 0%
Ave. Survival Time (HSV1 (Strain Schooler); Expt. 2, 3.1 mg/kg/day s.c.): 11.5 days
Percent Survival (HSV1 (Strain Schooler); Expt. 2, 3.1 mg/kg/day s.c.): 50%
Ave. Survival Time (HSV1 (Strain Schooler); Expt. 2, 12.5 mg/kg/day s.c.): 15.0 days
Percent Survival (HSV1 (Strain Schooler); Expt. 2, 12.5 mg/kg/day s.c.): 60%
EC50 (SV40): 6 µg/mL
inhibition of DNA virus (SV40; SV40): inhibitory
EC50 [8]: ~1 µg/mL
effect on RNA virus replication (polio): not effective
effect on RNA virus replication (vesicular stomatitis): not effective
minimal effective concentration (HSV1): 12.5 to 25 µg/mL
minimal effective dose (HSV-1 [9]; Human alphaherpesvirus 1, sc, intracerebral infection, subcutaneous treatment, read-out: Min. Effective Dose): 0.8 mg/kg/day
efficacy relative to acyclovir by minimum effective dose (HSV-1 [9]; intracerebral): consistently more efficacious than acyclovir
effect on RNA virus replication (influenza A): not effective
Toxicity [10]: Not tox.
minimal effective concentration (HSV2): 50 to 100 µg/mL

Nc1nc2c(ncn2COCCO)c(=O)[nH]1 [Acycloguanosine, 9-(2-hydroxyethoxymethyl)guanine, reference compound]
Min. Effective Dose (HSV-1 [7]): 1.0%
limiting progression and resolving corneal lesions (HSV-1 [7]): equally effective
Avg. Survival Time ([5]; 3.1 mg/kg/day s.c.): 6.4 days
Percent Survival ([5]; 3.1 mg/kg/day s.c.): 6%
Avg. Survival Time ([5]; 12.5 mg/kg/day s.c.): 6.2 days
Percent Survival ([5]; 12.5 mg/kg/day s.c.): 6%
Avg. Survival Time ([5]; 50 mg/kg/day s.c.): 7.7 days
Percent Survival ([5]; 50 mg/kg/day s.c.): 0%
Sensitivity (S) or Resistance (R) (HSV-1 PAA ®1): R
